Experimental data as given in patent US8039512B2, “Biologically active oils” (priority 2003, dated 2011).

How the values were obtained:
[1] = tested on: Secreted PGE2 from 3T3 cells; assay: In-vitro prostaglandin PGE2 (COX pathways) EIA assay; format: cell-based, mouse; conditions: 50 µM
Protocol: This assay was performed using Cayman chemicals Prostaglandin E2 EIA Kit-Monoclonal, according to kit protocol. Each sample was assayed at three dilutions in duplicate. […] In particular the two samples produced dose dependent inhibition of secreted PGE2 from the mouse fibroblast cell line equivalent to or better than aspirin under the test conditions.

[2] = tested on: 5-lipoxygenase pathway of human neutrophils (PMN); assay: Lipoxygenase pathways (leukotrienes and HETE) HPLC assay in isolated PMN; format: cell-based; conditions: for 5-HETE synthesis / Isomer 1 (all trans isomer of LTB4) synthesis / Isomer 2 (all trans isomer of LTB4) synthesis / LTB4 synthesis: human PMN, arachidonic acid + A23187
Text: The HPLC assay readily quantifies 5-HETE, 12-HETE, LTB4, and the two all trans-isomers of LTB-4, and thus gives quantitative data on the relative activities of the enzymes in the 5-lipoxygenase of neutrophils, as well as data on the 12-lipoxygenase pathway of platelets. Thus it is an ideal system to test potential inhibitors of these pathways.
The effects of inhibitory compounds may be tested on isolated human PMN and platelets, in which the pathways are activated by treating the PMN or platelets with arachidonic acid and the calcium ionophore A23187. The addition of arachidonic acid eliminates the PLA-2 step, and provides high levels of substrate for the pathway. Furthermore, such activation is known to maximally drive the pathway to produce the greatest synthesis of all the metabolites, and thus is also the least sensitive to inhibition.
All samples were dissolved in ethanol to give stock solutions of 10 mg/mL. Two further dilutions of each stock solution were made in ethanol at 5 and 1 mg/mL, making 10 test samples in all. […]
1. Up to 100 mL of blood was taken from a normal volunteer and anticoagulated with EDTA. Two mL of 4.5% EDTA in water was mixed with each 10 mL of blood.
2. A further 2 mL of 6.0% Dextran T500 was added to each of the 12 mL mixtures in 1, and placed in a water bath at 37° C., to sediment the red blood cells.
3. Following sedimentation in 2, the supernatant was carefully laid over 5 mL of Percoll, density 1.070. This was then spun at 500 g for 35 mins.
4. All the cells (PMN and remaining RBC) below the Percoll interface were removed with a plastic pipette and diluted at least 3-fold with Ca^2+/Mg^2+-free Dulbecco's phosphate buffer, and centrifuged at 600 g for 10 mins.
5. Following 4, the supernatant was carefully aspirated, and the pellet gently mixed with 1 mL of Ca^2+/Mg^2+-free Dulbecco's phosphate buffer by aspiration/deaspiration into a 1 ml plastic disposable pipette. A further 40 mL of Ca^2+/Mg^2+-free Dulbecco's phosphate buffer was then added and mixed by inversion. The cell suspension was then centrifuged at 600 g for 10 mins. 6. Following centrifugation, the supernatant was removed and the PMN pellet lysed with 10 mL of a 0.2% cold sodium chloride solution for 20 secs, followed by the addition of 10 mL of a 1.6% cold sodium chloride solution, and centrifuged at 600 g for 10 mins. 7. Following 6, the PMN pellet was vigorously mixed with 1 mL of Hank's buffer by rapid aspiration/deaspiration into a 1 mL plastic disposable pipette, and then finally suspended in Hank's buffer at 2.4×10^6 PMN/ml (as measured using a Coulter counter), in preparation for the leukotriene assay. Activation of Leukotriene Pathway 1. 1 mL of PMN suspension (2.4×10^6 PMN/ml) was transferred to a 13 mL glass tube (chromic acid washed) and placed in a water bath at 37° C. for 5 min prewarming. 2. Following prewarming, at time zero, 10 μL of each test compound in methanol (or equivalent volumes of methanol as control) was added to quadruplicate tubes over a 20 sec period. 3. At 5 min, 5 µL of 2 mM arachidonic acid (10 μM final) was added (4 tubes/20 secs). 4. At 10 min, 5 µL of 1 mM calcium ionophore (A23187) (5 μM final) was added (4 tubes/20 secs). 5. At 15 min the reaction was terminated by the addition of 100 μL 100 mM citric acid. This lowers the pH of the aqueous phase to less than 3, which is necessary for the extraction of the leukotrienes into the organic phase. 6. The pH of several samples was checked to ensure pH<3.0. (This is important). 7. 40 ng Prostaglandin B2 and 166 ng 15-HETE were added to each tube as the internal standard for LTB4 and 5-HETE respectively, and samples were mixed. 8. For Standard Curves LTB4 [1 ng/μl] (for a standard curve in the range 0-50 ng) and 5-HETE [5 ng/μL] (standard curve range 0-250 ng) were added to tubes containing 1 mL PMN, 100 μL of 100 mM citric acid and 40 ng PGB2 and 166 ng 15-HETE. 9. All tubes were vortexed. 10. […]

Compound: CC(=O)Oc1ccccc1C(=O)O [Aspirin]
- % Control (secreted PGE2) ([1]; A23187): 72.6 % Control
- % Control (secreted PGE2) ([1]; A23187, listed as aspirin): around 72.6 % Control

Compound: CCC(C)CCCCCCCCCCC(=O)O (centres unmarked) [Sample 12-MTA, 12-methyl tetradecanoic acid]
- 5-HETE synthesis ([2]; 2 μg/mL): 55 ± 9 percentage of the methanol control
- Isomer 1 (all trans isomer of LTB4) synthesis ([2]; 2 μg/mL): 73 ± 13 percentage of the methanol control
- Isomer 2 (all trans isomer of LTB4) synthesis ([2]; 2 μg/mL): 60 ± 17 percentage of the methanol control
- LTB4 synthesis ([2]; 2 μg/mL): 84 ± 5 percentage of the methanol control
- 5-HETE synthesis ([2]; 5 μg/mL): 65 ± 3 percentage of the methanol control
- Isomer 1 (all trans isomer of LTB4) synthesis ([2]; 5 μg/mL): 101 ± 12 percentage of the methanol control
- Isomer 2 (all trans isomer of LTB4) synthesis ([2]; 5 μg/mL): 97 ± 9 percentage of the methanol control
- LTB4 synthesis ([2]; 5 μg/mL): 101 ± 12 percentage of the methanol control
- 5-HETE synthesis ([2]; 10 μg/mL): 46 ± 11 percentage of the methanol control
- Isomer 1 (all trans isomer of LTB4) synthesis ([2]; 10 μg/mL): 59 ± 14 percentage of the methanol control
- Isomer 2 (all trans isomer of LTB4) synthesis ([2]; 10 μg/mL): 68 ± 14 percentage of the methanol control
- LTB4 synthesis ([2]; 10 μg/mL): 70 ± 17 percentage of the methanol control
- 5-HETE synthesis ([2]; 20 μg/mL): 2 ± 4 percentage of the methanol control
- Isomer 1 (all trans isomer of LTB4) synthesis ([2]; 20 μg/mL): 0 percentage of the methanol control
- Isomer 2 (all trans isomer of LTB4) synthesis ([2]; 20 μg/mL): 0 percentage of the methanol control
- LTB4 synthesis ([2]; 20 μg/mL): 0 percentage of the methanol control
- 5-HETE synthesis ([2]; 50 μg/mL): 0 percentage of the methanol control
- Isomer 1 (all trans isomer of LTB4) synthesis ([2]; 50 μg/mL): 0 percentage of the methanol control
- Isomer 2 (all trans isomer of LTB4) synthesis ([2]; 50 μg/mL): 0 percentage of the methanol control
- LTB4 synthesis ([2]; 50 μg/mL): 0 percentage of the methanol control
- Inhibition of the 5-LOX pathway ([2]; as low as 20 μg/mL): 100%
